Experimental data reported in ChEMBL document CHEMBL1142171, “Identification and structural characterization of I84C and I84A mutations that are associated with high-level resistance to human immunodeficiency virus protease inhibitors and impair viral replication” (2007).

Legend:
Type in all cases: functional, HEK293
[1] = test system: Human immunodeficiency virus 1; assay: Antiviral activity against HIV1 A8 isolate with protease I84A mutation in HEK 293 cells relative to wild type
[2] = test system: Human immunodeficiency virus 1; assay: Antiviral activity against HIV1 A1 isolate with protease I84A mutation in HEK 293 cells relative to wild type
[3] = test system: Human immunodeficiency virus 1; assay: Antiviral activity against HIV1 A2 isolate with protease I84A mutation in HEK 293 cells relative to wild type
[4] = test system: Human immunodeficiency virus 1; assay: Antiviral activity against HIV1 A3 isolate with protease I84A mutation in HEK 293 cells relative to wild type
[5] = test system: Human immunodeficiency virus 1; assay: Antiviral activity against HIV1 A4 isolate with protease I84A mutation in HEK 293 cells relative to wild type
[6] = test system: Human immunodeficiency virus 1; assay: Antiviral activity against HIV1 A5 isolate with protease I84A mutation in HEK 293 cells relative to wild type
[7] = test system: Human immunodeficiency virus 1; assay: Antiviral activity against HIV1 A6 isolate with protease I84A mutation in HEK 293 cells relative to wild type
[8] = test system: Human immunodeficiency virus 1; assay: Antiviral activity against HIV1 A7 isolate with protease I84A mutation in HEK 293 cells relative to wild type
[9] = test system: Human immunodeficiency virus 1; assay: Antiviral activity against HIV1 A9 isolate with protease I84A mutation in HEK 293 cells relative to wild type
[10] = test system: Human immunodeficiency virus 1; assay: Antiviral activity against HIV1 A10 isolate with protease I84A mutation in HEK 293 cells relative to wild type
[11] = test system: Human immunodeficiency virus 1; assay: Antiviral activity against HIV1 A11 isolate with protease I84A mutation in HEK 293 cells relative to wild type
[12] = test system: Human immunodeficiency virus 1; assay: Antiviral activity against HIV1 A12 isolate with protease I84A mutation in HEK 293 cells relative to wild type
[13] = test system: Human immunodeficiency virus 1; assay: Antiviral activity against HIV1 A13 isolate with protease I84A mutation in HEK 293 cells relative to wild type
[14] = test system: Human immunodeficiency virus 1; assay: Antiviral activity against HIV1 A14 isolate with protease I84A mutation in HEK 293 cells relative to wild type
[15] = test system: Human immunodeficiency virus 1; assay: Antiviral activity against HIV1 A15 isolate with protease I84A mutation in HEK 293 cells relative to wild type
[16] = test system: Human immunodeficiency virus 1; assay: Antiviral activity against HIV1 C1 isolate with protease I84C mutation in HEK 293 cells relative to wild type
[17] = test system: Human immunodeficiency virus 1; assay: Antiviral activity against HIV1 C2 isolate with protease I84C mutation in HEK 293 cells relative to wild type
[18] = test system: Human immunodeficiency virus 1; assay: Antiviral activity against HIV1 C3 isolate with protease I84C mutation in HEK 293 cells relative to wild type
[19] = test system: Human immunodeficiency virus 1; assay: Antiviral activity against HIV1 C4 isolate with protease I84C mutation in HEK 293 cells relative to wild type
[20] = test system: Human immunodeficiency virus 1; assay: Antiviral activity against HIV1 C5 isolate with protease I84C mutation in HEK 293 cells relative to wild type
[21] = test system: Human immunodeficiency virus 1; assay: Antiviral activity against HIV1 C6 isolate with protease I84C mutation in HEK 293 cells relative to wild type
[22] = test system: Human immunodeficiency virus 1; assay: Antiviral activity against HIV1 C7 isolate with protease I84C mutation in HEK 293 cells relative to wild type
[23] = test system: Human immunodeficiency virus 1; assay: Antiviral activity against HIV1 C8 isolate with protease I84C mutation in HEK 293 cells relative to wild type
[24] = test system: Human immunodeficiency virus 1; assay: Antiviral activity against HIV1 C10 isolate with protease I84C mutation in HEK 293 cells relative to wild type
[25] = test system: Human immunodeficiency virus 1; assay: Resistance to HIV1 with protease 46I, 54V and I84V mutation in HEK 293 cells relative to similar background
[26] = test system: Human immunodeficiency virus 1; assay: Resistance to HIV1 with protease 46M, 54I and I84V mutation in HEK 293 cells relative to similar background
[27] = test system: Human immunodeficiency virus 1; assay: Resistance to HIV1 with protease 46M, 54I and I84C mutation in HEK 293 cells relative to similar background
[28] = test system: Human immunodeficiency virus 1; assay: Resistance to HIV1 with protease 46I, 54I and I84V mutation in HEK 293 cells relative to similar background
[29] = test system: Human immunodeficiency virus 1; assay: Resistance to HIV1 with protease 46I, 54I and I84A mutation in HEK 293 cells relative to similar background
[30] = test system: Human immunodeficiency virus 1; assay: Resistance to HIV1 with protease 46I/L, 54I and I84C mutation in HEK 293 cells relative to similar background
[31] = test system: Human immunodeficiency virus 1; assay: Resistance to HIV1 with protease 46I, 54M/V and I84A mutation in HEK 293 relative to similar background
[32] = test system: Human immunodeficiency virus 1; assay: Antiviral activity against HIV1 C9 isolate with protease I84C mutation in HEK 293 cells relative to wild type
[33] = test system: Human immunodeficiency virus 1; assay: Antiviral activity against HIV1 C11 isolate with protease I84C mutation in HEK 293 cells relative to wild type

CC(C)(C)NC(=O)[C@@H]1C[C@@H]2CCCC[C@@H]2CN1C[C@@H](O)[C@H](Cc1ccccc1)NC(=O)[C@H](CC(N)=O)NC(=O)c1ccc2ccccc2n1
Fold change [1]: 265.5 | Fold change [2]: 1000 | Fold change [3]: 141 | Fold change [4]: 365 | Fold change [5]: 241 | Fold change [6]: 256 | Fold change [7]: 24 | Fold change [8]: 1000 | Fold change [9]: 1000 | Fold change [10]: 1000 | Fold change [11]: 1000 | Fold change [12]: 1000 | Fold change [13]: 1000 | Fold change [14]: 69 | Fold change [15]: 1000 | Fold change [16]: 6.1 | Fold change [17]: 14 | Fold change [18]: 56 | Fold change [19]: 92 | Fold change [20]: 41 | Fold change [21]: 24 | Fold change [22]: 1000 | Fold change [23]: 68 | Fold change [24]: 242 | Fold change [25]: 20 | Fold change [26]: 4.3 | Fold change [27]: 56 | Fold change [28]: 4.3 | Fold change [29]: 261 | Fold change [30]: 80 | Fold change [31]: >1000

CC(C)CN(C[C@@H](O)[C@H](Cc1ccccc1)NC(=O)O[C@H]1CCOC1)S(=O)(=O)c1ccc(N)cc1
Fold change [1]: 252 | Fold change [2]: 32 | Fold change [3]: 31 | Fold change [4]: 43 | Fold change [5]: 32 | Fold change [6]: 28 | Fold change [7]: 21 | Fold change [8]: 74 | Fold change [9]: 33 | Fold change [10]: 400 | Fold change [11]: 47 | Fold change [12]: 400 | Fold change [13]: 43 | Fold change [14]: 141 | Fold change [15]: 30 | Fold change [16]: 1.7 | Fold change [17]: 5.4 | Fold change [18]: 8.6 | Fold change [19]: 10 | Fold change [20]: 20 | Fold change [21]: 64 | Fold change [22]: 23 | Fold change [23]: 12 | Fold change [32]: 30 | Fold change [24]: 53 | Fold change [33]: 18 | Fold change [25]: 36 | Fold change [26]: 4 | Fold change [27]: 8.6 | Fold change [28]: 9 | Fold change [29]: 33 | Fold change [30]: 21 | Fold change [31]: 74

CC(C)(C)NC(=O)[C@@H]1CN(Cc2cccnc2)CCN1C[C@@H](O)C[C@@H](Cc1ccccc1)C(=O)N[C@H]1c2ccccc2C[C@H]1O.O
Fold change [1]: 400 | Fold change [2]: 73 | Fold change [3]: 27 | Fold change [4]: 78 | Fold change [5]: 58 | Fold change [6]: 53 | Fold change [7]: 38 | Fold change [8]: 92 | Fold change [9]: 138 | Fold change [10]: 400 | Fold change [11]: 73 | Fold change [12]: 400 | Fold change [13]: 178 | Fold change [14]: 152 | Fold change [15]: 118 | Fold change [16]: 1.2 | Fold change [17]: 1.3 | Fold change [18]: 4.1 | Fold change [19]: 11 | Fold change [20]: 3.8 | Fold change [21]: 63 | Fold change [22]: 42 | Fold change [23]: 6.4 | Fold change [32]: 5.5 | Fold change [24]: 5.5 | Fold change [33]: 5.7 | Fold change [25]: 19 | Fold change [26]: 2.4 | Fold change [27]: 4.1 | Fold change [28]: 9.1 | Fold change [29]: 73 | Fold change [30]: 8.6 | Fold change [31]: 178

Cc1c(O)cccc1C(=O)N[C@@H](CSc1ccccc1)[C@H](O)CN1C[C@H]2CCCC[C@H]2C[C@H]1C(=O)NC(C)(C)C
Fold change [1]: 600 | Fold change [2]: 600 | Fold change [3]: 600 | Fold change [4]: 600 | Fold change [5]: 600 | Fold change [6]: 600 | Fold change [7]: 64 | Fold change [8]: 600 | Fold change [9]: 600 | Fold change [10]: 600 | Fold change [11]: 600 | Fold change [12]: 600 | Fold change [13]: 196 | Fold change [14]: 210 | Fold change [15]: 600 | Fold change [16]: 15 | Fold change [17]: 59 | Fold change [18]: 74 | Fold change [19]: 395 | Fold change [20]: 51 | Fold change [21]: 144 | Fold change [22]: 600 | Fold change [23]: 86 | Fold change [32]: 70 | Fold change [24]: 286 | Fold change [33]: 91 | Fold change [25]: 16 | Fold change [26]: 4 | Fold change [27]: 74 | Fold change [28]: 9 | Fold change [29]: >600 | Fold change [30]: 115 | Fold change [31]: >600

COC(=O)N[C@H](C(=O)N[C@@H](Cc1ccccc1)[C@@H](O)CN(Cc1ccc(-c2ccccn2)cc1)NC(=O)[C@@H](NC(=O)OC)C(C)(C)C)C(C)(C)C [ATAZANAVIR]
Fold change [2]: 38 | Fold change [9]: 52 | Fold change [10]: 700 | Fold change [11]: 63 | Fold change [12]: 25 | Fold change [13]: 700 | Fold change [14]: 21 | Fold change [15]: 253 | Fold change [32]: 9.1 | Fold change [24]: 19 | Fold change [33]: 5

Cc1cccc(C)c1OCC(=O)N[C@@H](Cc1ccccc1)[C@@H](O)C[C@H](Cc1ccccc1)NC(=O)[C@H](C(C)C)N1CCCNC1=O [LOPINAVIR]
Fold change [1]: 94 | Fold change [2]: 10 | Fold change [4]: 11 | Fold change [5]: 14 | Fold change [6]: 9 | Fold change [7]: 14 | Fold change [8]: 124 | Fold change [9]: 16 | Fold change [10]: 59 | Fold change [11]: 14 | Fold change [12]: 210 | Fold change [13]: 50 | Fold change [14]: 104 | Fold change [15]: 75 | Fold change [16]: 0.4 | Fold change [18]: 1.6 | Fold change [19]: 3.1 | Fold change [20]: 3.1 | Fold change [21]: 47 | Fold change [22]: 7.2 | Fold change [23]: 2.9 | Fold change [32]: 2.3 | Fold change [24]: 5.1 | Fold change [33]: 2.8 | Fold change [25]: 80 | Fold change [26]: 2.8 | Fold change [27]: 2.2 | Fold change [28]: 8.9 | Fold change [29]: 14 | Fold change [30]: 3.1 | Fold change [31]: 75

CC(C)c1nc(CN(C)C(=O)N[C@H](C(=O)N[C@@H](Cc2ccccc2)C[C@H](O)[C@H](Cc2ccccc2)NC(=O)OCc2cncs2)C(C)C)cs1 [RITONAVIR]
Fold change [1]: 86 | Fold change [2]: 60 | Fold change [3]: 85 | Fold change [4]: 76 | Fold change [5]: 42 | Fold change [6]: 54 | Fold change [7]: 34 | Fold change [8]: 141 | Fold change [9]: 167 | Fold change [10]: 400 | Fold change [11]: 73 | Fold change [12]: 400 | Fold change [13]: 400 | Fold change [14]: 105 | Fold change [15]: 400 | Fold change [16]: 1.6 | Fold change [17]: 8.6 | Fold change [18]: 10 | Fold change [19]: 9.1 | Fold change [20]: 15 | Fold change [21]: 22 | Fold change [22]: 60 | Fold change [23]: 14 | Fold change [32]: 20 | Fold change [24]: 29 | Fold change [33]: 15 | Fold change [25]: 49 | Fold change [26]: 6.7 | Fold change [27]: 10 | Fold change [28]: 11 | Fold change [29]: 74 | Fold change [30]: 18 | Fold change [31]: >400
